Reference: PMC10622552, “Engineering a scalable and orthogonal platform for synthetic communication in mammalian cells” (Nature Communications, 2023)

Columns and labels:
[1] = tested on: HEK293S GnTi- TetR sender cells; test: Flow cytometry of EmGFP-positive sender cells with and without doxycycline; type: cell-based, human; details: HEK293S GnTi- TetR senders prior to sorting; with dox
Description: HEK293T cells (ATCC® CRL3216™) or human embryonic kidney 293 S lacking N-acetylglucosaminyltransferase I and expressing the Tet repressor protein (HEK293S GnTI^- TetR; obtained from the group of N. Callewaert at the VIB-UGent Center for Medical Biotechnology; nico.callewaert@ugent.vib.be)[75] were plated in 24-well plates (Greiner) and upon reaching 10-20% confluency were transduced with lentivirus harboring the SUMO-tagged A’-A’ peptide with linker I2 (Supplementary Fig. S26) or SUMO-tagged A’-Γ or Γ’-A’ peptide with linker l4 (Supplementary Fig. S31), under the control of the major immediate–early (MIE) human cytomegalovirus (CMV) enhancer and promoter and two TetO operator sequences[69] followed by an internal ribosome entry site (IRES) from encephalomyocarditis virus (EMCV) controlling the expression of an emerald green fluorescent protein (EmGFP). In total, 50–100 μL lentivirus was added to the cells, containing transduction medium (DMEM (41966; Thermo Fisher Scientific) supplemented with 10% (v/v) heat-inactivated FBS (S-FBS-SA-015; Serana)). […] Cells were bulk-sorted or sorted as single cells for EmGFP by fluorescence-activated cell sorting (FACS) in 1:1 conditioned to growth media (conditioned medium being medium that has been in contact with cells for 24 hours and subsequently harvested and filtered with a 0.45-μm syringe filter (Merck)). […]

[2] = tested on: A-typeJAK/STAT receptor in HEK293T receiver cells; test: Sender-receiver co-culture, SEAP activity (Fig. 6b, S30); type: cell-based, human; details: 1.5 × 10^5 receivers + 6 × 10^5 senders; 1 μg/mL dox; 48 h, 37 °C; independent triplicates
Source text: In detail, we observe a 6.6-fold increase in SEAP activity for receiver cells cultured with senders in the presence of dox compared to a co-culture with senders in the absence of the inducer and 9.7-fold increase compared to receiver cells cultured with control 293S GnTi^- cells; a response that is similar to previously engineered paracrine synthetic communication systems[31],[33],[34],[36],[37],[42], ranging from 1.5- to 20-fold in performance. To understand the origin of this activation level, we plated 4.5 × 10^5 sender cells incubated with doxycycline and measured 0.14 μM of secreted SUMO-tagged A’-A’ dipeptide after 48 h, by means of western blotting using an anti-Smt3 antibody (“Methods” and Supplementary Fig. S29). […]
SEAP concentration in cell culture medium was quantified in terms of absorbance increase due to para-nitrophenylphosphate (pNPP), using a commercially available SEAP assay kit (NBP2-25285, Novus Biologicals). […] Absorbance values were measured at 405 nm, at a controlled temperature of 25 °C, for 60 minutes, using a Tecan Spark 10 M plate reader (Tecan). […] Absorbance units are converted to amount of substrate conversion and SEAP activity is calculated from the slope of the time trace and expressed in units per litre (U/L). […]

C[C@H]1c2cccc(O)c2C(=O)C2=C(O)[C@]3(O)C(=O)C(C(N)=O)=C(O)[C@@H](N(C)C)[C@@H]3[C@@H](O)[C@@H]21 [doxycycline]
EmGFP positive cells upon doxycycline, prior to sorting [1]: 55.0%
fold increase in SEAP activity vs co-culture without inducer [2]: 6.6 fold
fold increase in SEAP activity vs receivers with control 293S GnTi- cells [2]: 9.7 fold
